Laboratory results published in article PMC9026127, “A Leucyl-tRNA Synthetase Urzyme: Authenticity of tRNA Synthetase Catalytic Activities and Promiscuous Phosphorylation of Leucyl-5′AMP” (International Journal of Molecular Sciences, 2022).
One block for each molecule: values may come before it.

Experiments:
P. horikoshii LeuRS = target: T1, P. horikoshii LeuRS (Pyrococcus horikoshii, UniProt O58698); assay: nitrocellulose filter binding, [^[…]] leucine; conditions: labelled compound; formed in situ from 25 μM [^14C] leucine and 50 μM ATP, presumed leucyl-5′AMP; pH 7.5, 20 mM MgCl2, 37 °C
T1 construct: gene leuS; full length, synthetic gene in pET-11a, E. coli BL21-CodonPlus(DE3)-RIPL, Ni-NTA purified (tag not described), heat step 80 °C
T1 sequence (O58698 1-967): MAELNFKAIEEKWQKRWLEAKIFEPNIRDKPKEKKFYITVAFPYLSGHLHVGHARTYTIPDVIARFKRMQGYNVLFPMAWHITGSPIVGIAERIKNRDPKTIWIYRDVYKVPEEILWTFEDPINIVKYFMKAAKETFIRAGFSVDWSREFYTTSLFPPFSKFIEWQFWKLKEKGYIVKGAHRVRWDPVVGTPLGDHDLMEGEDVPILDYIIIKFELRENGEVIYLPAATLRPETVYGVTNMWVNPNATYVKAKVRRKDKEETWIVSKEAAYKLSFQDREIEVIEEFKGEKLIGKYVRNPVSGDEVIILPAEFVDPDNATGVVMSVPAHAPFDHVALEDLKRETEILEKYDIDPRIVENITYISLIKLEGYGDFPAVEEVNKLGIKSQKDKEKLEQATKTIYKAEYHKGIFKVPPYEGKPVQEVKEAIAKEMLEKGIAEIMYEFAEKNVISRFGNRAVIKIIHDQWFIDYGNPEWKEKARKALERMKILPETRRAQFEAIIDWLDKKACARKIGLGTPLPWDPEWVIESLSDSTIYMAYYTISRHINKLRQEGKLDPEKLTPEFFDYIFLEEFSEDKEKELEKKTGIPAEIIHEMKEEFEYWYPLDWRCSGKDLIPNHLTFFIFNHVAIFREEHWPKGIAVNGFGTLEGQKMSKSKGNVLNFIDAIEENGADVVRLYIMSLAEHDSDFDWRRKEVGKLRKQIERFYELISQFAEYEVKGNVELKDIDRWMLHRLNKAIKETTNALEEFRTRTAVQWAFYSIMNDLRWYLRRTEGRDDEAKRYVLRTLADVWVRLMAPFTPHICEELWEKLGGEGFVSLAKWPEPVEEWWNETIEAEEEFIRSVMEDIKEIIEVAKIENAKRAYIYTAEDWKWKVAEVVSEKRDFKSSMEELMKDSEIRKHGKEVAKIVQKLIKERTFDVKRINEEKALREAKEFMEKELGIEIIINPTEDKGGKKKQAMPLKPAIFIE

[1] = target: T2, LeuAC (LeuRS urzyme), TEV-cleaved (Pyrococcus horikoshii, UniProt O58698); assay: Sephadex G15 size-exclusion co-elution of [^[…]] leucine label; format: binding; conditions: labelled compound; formed in situ from [^14C] leucine and ATP, presumed leucyl-5′AMP; 50 mM HEPES pH 7.5, 20 mM MgCl2, 37 °C; only a simulated upper limit for KD
T2 construct: gene leuS; MBP fusion (pMAL-c2x, E. coli), TEV-cleaved but MBP not separated; his-tagged

Ec LeuRS = target: T3, Ec LeuRS (Escherichia coli, UniProt P07813); conditions: leucine activation; 50 mM HEPES pH 7.5, 10 mM MgCl2, 10 μM ATP, 50 mM amino acid, pyrophosphatase
T3 construct: gene leuS

purified protein = substrate: CC(C)C[C@H](N)C(=O)O; assay: purified protein; format: biochemical, Pyrococcus horikoshii; conditions: unit not printed beside the value (M inferred), tRNA^Leu and ATP co-substrates, 50 mM HEPES pH 7.5, 10 mM MgCl2

T3 sequence (P07813 whole entry): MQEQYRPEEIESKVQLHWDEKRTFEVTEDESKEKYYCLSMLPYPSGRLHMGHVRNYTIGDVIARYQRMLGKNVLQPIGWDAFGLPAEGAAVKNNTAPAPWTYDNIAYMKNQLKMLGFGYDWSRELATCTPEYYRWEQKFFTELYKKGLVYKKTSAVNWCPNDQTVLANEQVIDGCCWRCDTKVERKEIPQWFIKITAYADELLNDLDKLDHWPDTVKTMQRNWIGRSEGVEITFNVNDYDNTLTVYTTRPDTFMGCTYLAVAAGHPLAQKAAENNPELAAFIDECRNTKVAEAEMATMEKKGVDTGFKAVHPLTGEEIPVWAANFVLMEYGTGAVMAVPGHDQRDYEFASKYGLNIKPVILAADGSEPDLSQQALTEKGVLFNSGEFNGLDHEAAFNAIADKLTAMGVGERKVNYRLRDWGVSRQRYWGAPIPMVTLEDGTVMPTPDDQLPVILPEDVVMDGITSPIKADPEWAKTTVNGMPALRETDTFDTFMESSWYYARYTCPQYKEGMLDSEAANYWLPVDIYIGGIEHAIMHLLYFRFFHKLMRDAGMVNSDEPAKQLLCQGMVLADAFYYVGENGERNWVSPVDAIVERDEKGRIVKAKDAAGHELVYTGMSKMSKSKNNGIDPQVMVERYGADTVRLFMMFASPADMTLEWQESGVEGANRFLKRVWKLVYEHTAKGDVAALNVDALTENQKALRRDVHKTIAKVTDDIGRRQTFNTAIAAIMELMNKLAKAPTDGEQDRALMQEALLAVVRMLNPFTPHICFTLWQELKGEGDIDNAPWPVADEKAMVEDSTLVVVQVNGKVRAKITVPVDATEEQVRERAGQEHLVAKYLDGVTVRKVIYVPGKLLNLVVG

- moles [^14C] leucine/mole enzyme (P. horikoshii LeuRS): 0.48 ± 0.13 mol/mol
Molecule: CC(C)C[C@H](N)C(=O)OP(=O)(O)OC[C@H]1O[C@@H](n2cnc3c(N)ncnc32)[C@H](O)[C@@H]1O [leucyl-5′AMP]
- Sephadex G15 size-exclusion co-elution of [^14C] leucine label [1]: lower limit on both the stoichiometry and affinity of the active LeuAC•leucyl-5′ AMP complex

Molecule: Nc1ncnc2c1ncn2[C@@H]1O[C@H](COP(=O)(O)OP(=O)(O)OP(=O)(O)O)[C@@H](O)[C@H]1O [ATP]
- single-turnover active-site titration, [^32P] ATP, TLC (Ec LeuRS): Full-length LeuRS from both E. coli and P. horikoshii produce minor amounts of ADP

B1: P. horikoshii LeuRS (Pyrococcus horikoshii OT3) (protein)
chain: MAELNFKAIEEKWQKRWLEAKIFEPNIRDKPKEKKFYITVAFPYLSGHLHVGHARTYTIPDVIARFKRMQGYNVLFPMAWHITGSPIVGIAERIKNRDPKTIWIYRDVYKVPEEILWTFEDPINIVKYFMKAAKETFIRAGFSVDWSREFYTTSLFPPFSKFIEWQFWKLKEKGYIVKGAHRVRWDPVVGTPLGDHDLMEGEDVPILDYIIIKFELRENGEVIYLPAATLRPETVYGVTNMWVNPNATYVKAKVRRKDKEETWIVSKEAAYKLSFQDREIEVIEEFKGEKLIGKYVRNPVSGDEVIILPAEFVDPDNATGVVMSVPAHAPFDHVALEDLKRETEILEKYDIDPRIVENITYISLIKLEGYGDFPAVEEVNKLGIKSQKDKEKLEQATKTIYKAEYHKGIFKVPPYEGKPVQEVKEAIAKEMLEKGIAEIMYEFAEKNVISRFGNRAVIKIIHDQWFIDYGNPEWKEKARKALERMKILPETRRAQFEAIIDWLDKKACARKIGLGTPLPWDPEWVIESLSDSTIYMAYYTISRHINKLRQEGKLDPEKLTPEFFDYIFLEEFSEDKEKELEKKTGIPAEIIHEMKEEFEYWYPLDWRCSGKDLIPNHLTFFIFNHVAIFREEHWPKGIAVNGFGTLEGQKMSKSKGNVLNFIDAIEENGADVVRLYIMSLAEHDSDFDWRRKEVGKLRKQIERFYELISQFAEYEVKGNVELKDIDRWMLHRLNKAIKETTNALEEFRTRTAVQWAFYSIMNDLRWYLRRTEGRDDEAKRYVLRTLADVWVRLMAPFTPHICEELWEKLGGEGFVSLAKWPEPVEEWWNETIEAEEEFIRSVMEDIKEIIEVAKIENAKRAYIYTAEDWKWKVAEVVSEKRDFKSSMEELMKDSEIRKHGKEVAKIVQKLIKERTFDVKRINEEKALREAKEFMEKELGIEIIINPTEDKGGKKKQAMPLKPAIFIE
notes: full length, synthetic gene in pET-11a, E. coli BL21-CodonPlus(DE3)-RIPL, Ni-NTA purified (tag not described), heat step 80 °C
- Km (purified protein): 5.9 ± 0.8 × 10^−6 M
